Laboratory results: patent publication US20250026721A1, “COMPOUNDS AND METHODS FOR MODULATING RAS-PI3K” (Vividion Therapeutics, Inc., priority 2023, published 2025)
pIC50: −log10 of the molar value.

These compounds were tested against T1, PIK3CA (Homo sapiens, UniProt P42336) (assay: In vitro ELISA target engagement assay for PIK3CA in Jurkat cellular lysate (competition with PIK3CA Biotin Probe)). Conditions: 1 hour at rt, then 500 nM PIK3CA Biotin Probe, read-out: Elisa Target Engagement Assay (TE50).
T1 construct: endogenous in cells; host or cells: Jurkat cell lysate
T1 sequence (P42336 whole entry): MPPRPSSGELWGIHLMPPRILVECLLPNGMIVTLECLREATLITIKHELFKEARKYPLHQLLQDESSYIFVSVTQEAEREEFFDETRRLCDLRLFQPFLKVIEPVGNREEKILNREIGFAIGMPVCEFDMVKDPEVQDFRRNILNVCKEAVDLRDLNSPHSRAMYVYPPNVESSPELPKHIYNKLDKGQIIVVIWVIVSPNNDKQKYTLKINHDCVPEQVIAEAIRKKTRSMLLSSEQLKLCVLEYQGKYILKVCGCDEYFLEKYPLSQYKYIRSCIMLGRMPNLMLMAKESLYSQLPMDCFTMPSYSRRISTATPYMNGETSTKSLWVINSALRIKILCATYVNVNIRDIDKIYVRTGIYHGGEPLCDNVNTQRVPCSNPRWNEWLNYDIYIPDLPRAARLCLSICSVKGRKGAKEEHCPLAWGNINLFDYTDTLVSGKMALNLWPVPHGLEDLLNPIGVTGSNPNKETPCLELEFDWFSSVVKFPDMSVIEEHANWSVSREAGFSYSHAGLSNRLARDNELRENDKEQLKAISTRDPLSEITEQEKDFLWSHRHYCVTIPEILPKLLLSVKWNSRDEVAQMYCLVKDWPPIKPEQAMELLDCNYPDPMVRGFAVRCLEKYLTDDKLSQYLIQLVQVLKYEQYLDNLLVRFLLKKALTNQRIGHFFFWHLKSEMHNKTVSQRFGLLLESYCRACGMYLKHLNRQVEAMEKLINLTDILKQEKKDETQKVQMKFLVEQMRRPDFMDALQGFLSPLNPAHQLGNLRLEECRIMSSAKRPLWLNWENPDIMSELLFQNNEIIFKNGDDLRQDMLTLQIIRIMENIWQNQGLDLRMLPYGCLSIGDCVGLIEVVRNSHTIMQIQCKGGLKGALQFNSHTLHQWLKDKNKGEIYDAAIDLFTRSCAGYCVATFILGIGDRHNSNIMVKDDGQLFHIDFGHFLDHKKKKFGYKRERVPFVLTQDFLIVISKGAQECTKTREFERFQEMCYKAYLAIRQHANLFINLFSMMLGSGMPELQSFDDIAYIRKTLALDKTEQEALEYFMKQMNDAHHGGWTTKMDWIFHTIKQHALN
T1 sequence (P27986 whole entry partner): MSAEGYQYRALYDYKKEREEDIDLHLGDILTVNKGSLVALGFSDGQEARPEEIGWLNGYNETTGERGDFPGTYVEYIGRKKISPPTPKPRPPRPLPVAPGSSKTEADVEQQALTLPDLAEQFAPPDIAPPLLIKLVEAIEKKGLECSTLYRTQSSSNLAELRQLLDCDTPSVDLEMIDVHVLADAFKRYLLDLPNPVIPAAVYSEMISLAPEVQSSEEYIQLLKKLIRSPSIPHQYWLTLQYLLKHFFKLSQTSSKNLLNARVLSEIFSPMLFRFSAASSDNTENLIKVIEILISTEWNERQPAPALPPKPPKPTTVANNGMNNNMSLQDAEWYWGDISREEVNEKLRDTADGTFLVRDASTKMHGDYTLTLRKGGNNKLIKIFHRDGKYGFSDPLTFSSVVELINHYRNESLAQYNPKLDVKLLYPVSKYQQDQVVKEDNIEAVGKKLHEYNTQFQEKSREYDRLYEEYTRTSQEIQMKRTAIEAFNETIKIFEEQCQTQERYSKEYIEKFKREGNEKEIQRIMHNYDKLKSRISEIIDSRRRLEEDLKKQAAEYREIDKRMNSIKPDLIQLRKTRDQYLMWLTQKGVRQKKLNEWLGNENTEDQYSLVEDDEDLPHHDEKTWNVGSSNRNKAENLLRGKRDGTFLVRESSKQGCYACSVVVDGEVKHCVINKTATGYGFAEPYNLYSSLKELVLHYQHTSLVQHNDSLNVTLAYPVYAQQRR
Assay type: binding
Method: Example 3. In Vitro ELISA Target Engagement Assay for […] Engagement of compounds on PIK3CA were assessed in Jurkat cellular lysate via a sandwich ELISA. A solution of PIK3CA Biotin Probe was generated at 10 mM and used in the biological testing. […] Treatment Protocol: Jurkat cellular lysate was generated from frozen cell pellets. Cells were thawed on ice and resuspended in cold Dulbecco's phosphate buffered saline (DPBS) (12 mL/300 e^6 cells) then lysed by probe sonication (12×3 second pulses). Jurkat lysate was plated (50 μl/well) in Armadillo 96 well PCR plates (Thermo Fisher catalog number AB2396). The lysate was treated with serial dilutions of test compounds up to 200 μM and incubated for 1 hour at rt. Following compound incubation, PIK3CA Biotin Probe was added to a final concentration of 500 nM, and lysate was mixed by pipetting gently and incubated for an additional 1 hour at rt. The mixture was then diluted in 75 μL Dilution buffer. The mixture was centrifuged for 5 minutes at 4122 g and stored at −80° C. until ELISA TE detection. ELISA TE Detection: Quantification of PIK3CA TE was initiated by coating of the ELISA plate (Thermo Scientific White 384-Well Immuno plates; Thermo Fisher catalog number 460372). The capture antibody was diluted in plating buffer (1:83) and added to the ELISA plate, 20 μl/well, overnight at 4° C. The plate was then washed twice with PBST, 100 μl/well, and blocked with addition of blocking buffer (100 μl/well, 1 hour at rt). During block, treated and probe labeled lysate was thawed. After Block, the block buffer was removed and the thawed lysate was added to the ELISA plate, 30 μl/well, for 1.5 hours at rt. Following lysate incubation, the assay plate was washed 3 times with PBST, 100 μl/well. The Neutravidin-HRP was then diluted (1:500 in dilution buffer) and added for 1 hour at rt, 20 μl/well. Following incubation, the assay plate was washed 4 times with PBST, 100 μl/well, HRP substrate was added to plate, 20 μl/well and luminescence signal was read (Clariostar Plate Reader). For each compound the potency of target engagement (TE50) was determined using Graphpad Prism.

pIC50	Structure (SMILES)
6.66	COC1(C(=O)N[C@H](C)/C=C\S(C)(=O)=O)CCN(S(=O)(=O)c2ccc(Br)cc2-c2ccccc2Cl)CC1 [Compound 133, (R,Z)-1-((5-bromo-2′-chloro-[1,1′-biphenyl]-2-yl)sulfonyl)-4-methoxy-N-(4-(methylsulfonyl)but-3-en-2-yl)piperidine-4-carboxamide]
6.72	C[C@H](/C=C/C(=O)N1CC(F)(F)C1)NC(=O)C1(F)CCN(S(=O)(=O)c2ccc(C#N)cc2-c2ccccc2Cl)CC1 [Compound 136, (R,E)-1-((2′-chloro-5-cyano-[1,1′-biphenyl]-2-yl)sulfonyl)-N-(5-(3,3-difluoroazetidin-1-yl)-5-oxopent-3-en-2-yl)-4-fluoropiperidine-4-carboxamide]
6.21	COc1ccc(S(=O)(=O)N2CCC(OC)(C(=O)N[C@H](C)/C=C\S(C)(=O)=O)CC2)c(-c2ccccc2Cl)c1 [Compound 146, 1-[2-(2-chlorophenyl)-4-methoxy-phenyl]sulfonyl-4-methoxy-N—[(Z,1R)-1-methyl-3-methylsulfonyl-allyl]piperidine-4-carboxamide]
6.72	C[C@H](/C=C/C(=O)N1CC(F)(F)C1)NC(=O)[C@]1(F)CCN(S(=O)(=O)c2ccc(C#N)cc2-c2ccccc2Cl)[C@H](C)C1 [Compound 154, (2R,4S)-1-((2′-chloro-5-cyano-[1,1′-biphenyl]-2-yl)sulfonyl)-N-((R,E)-5-(3,3-difluoroazetidin-1-yl)-5-oxopent-3-en-2-yl)-4-fluoro-2-methylpiperidine-4-carboxamide]
6.70	C[C@H](/C=C\S(C)(=O)=O)NC(=O)C1(F)CCN(S(=O)(=O)c2cc3sccc3cc2-c2ccccc2Cl)CC1 [Compound 157, (R,Z)-1-((5-(2-chlorophenyl)benzo [b]thiophen-6-yl)sulfonyl)-4-fluoro-N-(4-(methylsulfonyl)but-3-en-2-yl)piperidine-4-carboxamide]
6.01	CC(C)OC(=O)N1C[C@H](C(=O)N2CCC(F)(C(=O)N[C@H](C)/C=C\S(C)(=O)=O)CC2)[C@H](c2ccccc2Cl)C1 [Compound 159, isopropyl(3R,4R)-3-(2-chlorophenyl)-4-(4-fluoro-4-(((R,Z)-4-(methylsulfonyl)but-3-en-2-yl)carbamoyl)piperidine-1-carbonyl)pyrrolidine-1-carboxylate]
6.17	CCOC(=O)N1C[C@H](C(=O)N2CCC(F)(C(=O)N[C@H](C)/C=C\S(C)(=O)=O)CC2)[C@H](c2ccccc2Cl)C1 [Compound 160, ethyl (3R,4R)-3-(2-chlorophenyl)-4-(4-fluoro-4-(((R,Z)-4-(methylsulfonyl)but-3-en-2-yl)carbamoyl)piperidine-1-carbonyl)pyrrolidine-1-carboxylate]
6.15	C[C@H](/C=C\S(C)(=O)=O)NC(=O)C1(F)CCN(C(=O)[C@H]2CN(CC(F)(F)c3ccccc3)C[C@H]2c2ccccc2Cl)CC1 [Compound 181, 1-((3R,4R)-4-(2-chlorophenyl)-1-(2,2-difluoro-2-phenylethyl)pyrrolidine-3-carbonyl)-4-fluoro-N-((R,Z)-4-(methylsulfonyl)but-3-en-2-yl)piperidine-4-carboxamide]

More lines, now with the values behind:

Structure (SMILES)	pIC50
C[C@H](/C=C\S(C)(=O)=O)NC(=O)C1(F)CCN(S(=O)(=O)c2ccc(CO)cc2-c2ccccc2Cl)CC1 [Compound 130, (R,Z)-1-((2′-chloro-5-(hydroxymethyl)-[1,1′-biphenyl]-2-yl)sulfonyl)-4-fluoro-N-(4-(methylsulfonyl)but-3-en-2-yl)piperidine-4-carboxamide]	6.33
COc1ccc(S(=O)(=O)N2CCC(F)(C(=O)N[C@H](C)/C=C/C(=O)N3CC(F)(F)C3)CC2)c(-c2ccccc2Cl)c1 [Compound 137, (R,E)-1-((2′-chloro-5-methoxy-[1,1′-biphenyl]-2-yl)sulfonyl)-N-(5-(3,3-difluoroazetidin-1-yl)-5-oxopent-3-en-2-yl)-4-fluoropiperidine-4-carboxamide]	6.42
COC1(C(=O)N[C@H](C)/C=C\S(C)(=O)=O)CCN(S(=O)(=O)c2ccc(C(F)(F)F)cc2-c2ccccc2Cl)CC1 [Compound 139, (R,Z)-1-((2′-chloro-5-(trifluoromethyl)-[1,1′-biphenyl]-2-yl)sulfonyl)-4-methoxy-N-(4-(methylsulfonyl)but-3-en-2-yl)piperidine-4-carboxamide]	6.48
C[C@H](/C=C\S(C)(=O)=O)NC(=O)[C@]1(F)CCN(S(=O)(=O)c2ccc(C(F)(F)F)cc2-c2ccccc2Cl)[C@H](C)C1 [Compound 142, (2R,4S)-1-((2′-chloro-5-(trifluoromethyl)-[1,1′-biphenyl]-2-yl)sulfonyl)-4-fluoro-2-methyl-N-((R,Z)-4-(methylsulfonyl)but-3-en-2-yl)piperidine-4-carboxamide]	6.92
C[C@H](/C=C\S(C)(=O)=O)NC(=O)[C@]1(F)CCN(S(=O)(=O)c2ccc(C#N)cc2-c2ccccc2Cl)[C@H](C)C1 [Compound 144, (2R,4S)-1-((2′-chloro-5-cyano-[1,1′-biphenyl]-2-yl)sulfonyl)-4-fluoro-2-methyl-N-((R,Z)-4-(methylsulfonyl)but-3-en-2-yl)piperidine-4-carboxamide]	7.26
C[C@H](/C=C/C(=O)N1CC(F)(F)C1)NC(=O)[C@]1(F)CCN(S(=O)(=O)c2ccc(C(F)(F)F)cc2-c2ccccc2Cl)[C@H](C)C1 [Compound 152, (2R,4S)-1-((2′-chloro-5-(trifluoromethyl)-[1,1′-biphenyl]-2-yl)sulfonyl)-N-((R,E)-5-(3,3-difluoroazetidin-1-yl)-5-oxopent-3-en-2-yl)-4-fluoro-2-methylpiperidine-4-carboxamide]	6.35
C[C@H](/C=C\S(C)(=O)=O)NC(=O)C1(F)CCN(C(=O)[C@H]2CN(C(=O)C(C)(C)C)C[C@H]2c2ccccc2Cl)CC1 [Compound 161, 1-((3R,4R)-4-(2-chlorophenyl)-1-pivaloylpyrrolidine-3-carbonyl)-4-fluoro-N-((R,Z)-4-(methylsulfonyl)but-3-en-2-yl)piperidine-4-carboxamide]	6.10
C[C@H](/C=C\S(C)(=O)=O)NC(=O)C1(F)CCN(C(=O)[C@H]2CN(C(=O)c3ccccc3)C[C@H]2c2ccccc2Cl)CC1 [Compound 162, 1-((3R,4R)-1-benzoyl-4-(2-chlorophenyl)pyrrolidine-3-carbonyl)-4-fluoro-N-((R,Z)-4-(methylsulfonyl)but-3-en-2-yl)piperidine-4-carboxamide]	6.11
C[C@H](/C=C\S(C)(=O)=O)NC(=O)C1(F)CCN(C(=O)[C@H]2CN(CC(F)(F)F)C[C@H]2c2ccccc2Cl)CC1 [Compound 163, 1-((3R,4R)-4-(2-chlorophenyl)-1-(2,2,2-trifluoroethyl)pyrrolidine-3-carbonyl)-4-fluoro-N-((R,Z)-4-(methylsulfonyl)but-3-en-2-yl)piperidine-4-carboxamide]	6.30
CCC(F)(F)CN1C[C@H](C(=O)N2CCC(F)(C(=O)N[C@H](C)/C=C\S(C)(=O)=O)CC2)[C@H](c2ccccc2Cl)C1 [Compound 178, 1-((3R,4R)-4-(2-chlorophenyl)-1-(2,2-difluorobutyl)pyrrolidine-3-carbonyl)-4-fluoro-N-((R,Z)-4-(methylsulfonyl)but-3-en-2-yl)piperidine-4-carboxamide]	6.27
